Results on 31 molecules are retold here after patent US10450293B2, “Chemokine CXCR4 and CCR5 receptor modulators and uses related thereto” (Emory University, priority 2014, dated 2019).

Read-outs that look alike come from different tables or passages of the source. Where only a bound is given, the exact number is not on record here.

The subject of one data set is HIV-1 Ba-L. The data set can be described thus: HIV-1 MAGI assay, Ba-L (CCR5 / M-tropic). Particulars: Human immunodeficiency virus 1, BAL. In kind it is cell-based. Here is the method: (§1) Bayesian statistical models were constructed using known CXCR4 and CCR5 active compounds from literature, and these models were used to virtually screen 5 million compounds in the Aldrich Marketplace Select library. The screen yielded 14 compounds of interest that were then tested for their anti-HIV activity for both tropisms in MAGI assay. Two compounds (FIG. 1, compounds 1 and 2) were active against both T and M tropic forms of HIV with IC50 values of ˜20 μM. These initial hits were followed-up by a second round of virtual screening based on similarity and sub-structure searching. Another 24 compounds were purchased from the same database and tested. […] This compound was then subjected to a series of biological evaluations to determine activity profile and confirm mechanism of action.

The next data set concerns HIV-1 IIIB. The data set can be described thus: HIV-1 MAGI assay, IIIB (CXCR4 / T-tropic). In kind it is cell-based. As to the method: as §1
The nature of another data set: MAGI toxicity. To be noted: human, MAGI cells, TC50, table of synthesized compounds.
For data set [1], the target named is HIV-1 reverse transcriptase (Human immunodeficiency virus type 1 group M subtype B, UniProt P03366). The data set can be described thus: biochemical. Type of data set: biochemical. To be noted: for IC50: read-out: RT IC50.
Another data set concerns the target T1, CCR5 (Homo sapiens, UniProt P51681).
T1 construct: expressed in transfected cells; host or cells: HeLa-C14
The data set can be described thus: HeLa-C14:JRFL CD4-dependent cell-cell fusion assay. Type of data set: cell-based. To be noted: luciferase readout, in words. The source says: Cell-cell fusion assays measure specifically co-receptor mediated inhibition of gp120-induced fusion in the absence of other viral machinery, and these assays were used to explore the CCR5- and CXCR4-specific antiviral activity. A cell-cell fusion assay was constructed to simulate HIV-1 entry in the absence of other viral machinery. The assay measured fusion of effector cells expressing the JRFL envelope (CCR5-tropic/CD4 dependent) with HeLa-C14 target cells (expressing CD4, CCR5, and CXCR4) using a luciferase readout (FIG. 5A).

A further data set addresses CXCR4 (Homo sapiens, UniProt P61073). The data set can be described thus: Nef-M1:CXCR4 induced mitochondrial membrane depolarization (MMD) inhibition in Jurkat cells. Particulars: in words. In kind it is cell-based. Also noted: endogenous in cells; host or cells: Jurkat.
[2] abbreviates: table of synthesized compounds, read-out: R5-IC50.
Where [3] appears, read: Human immunodeficiency virus 1, IIIB, MAGI, table of synthesized compounds, read-out: X4-IC50.
Where [4] appears, read: Table 3, read-out: MAGI Assay IC50 CCR5.
The mark [5] stands for this setting: Human immunodeficiency virus 1, IIIB, MAGI, Table 3, read-out: MAGI Assay IC50 CXCR4.

CXCR4, sequence (P61073 whole entry): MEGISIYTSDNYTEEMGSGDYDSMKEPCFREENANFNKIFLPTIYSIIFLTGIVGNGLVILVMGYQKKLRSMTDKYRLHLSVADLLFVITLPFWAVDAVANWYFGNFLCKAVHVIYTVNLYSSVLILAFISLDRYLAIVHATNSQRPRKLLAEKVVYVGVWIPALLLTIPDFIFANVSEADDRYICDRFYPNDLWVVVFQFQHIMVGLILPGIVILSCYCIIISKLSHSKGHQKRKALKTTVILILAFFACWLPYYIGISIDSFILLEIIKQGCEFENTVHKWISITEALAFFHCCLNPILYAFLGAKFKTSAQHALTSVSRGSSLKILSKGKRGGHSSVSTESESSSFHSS
T1 sequence (P51681 whole entry): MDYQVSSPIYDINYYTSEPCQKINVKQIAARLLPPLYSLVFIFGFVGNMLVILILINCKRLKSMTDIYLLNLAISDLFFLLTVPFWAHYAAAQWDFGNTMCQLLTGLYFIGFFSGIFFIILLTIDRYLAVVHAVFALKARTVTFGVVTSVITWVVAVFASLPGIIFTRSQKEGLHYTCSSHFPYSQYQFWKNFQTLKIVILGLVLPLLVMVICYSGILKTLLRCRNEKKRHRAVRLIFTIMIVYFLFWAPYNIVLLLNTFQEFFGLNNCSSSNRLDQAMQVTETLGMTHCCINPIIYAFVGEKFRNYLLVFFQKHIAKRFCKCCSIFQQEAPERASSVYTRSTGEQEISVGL

As to `c1ccc(CCCC2CCN(Cc3ccccn3)CC2)cc1`, the IC50 (in general, the concentration at which inhibition is half-maximal) in the data set with HIV-1 Ba-L (setting [2]) is 73.5 µM; in the data set on HIV-1 IIIB (setting [3]), 137 µM. Also, in “MAGI toxicity”, the half-maximal cytotoxic concentration (CC50) (as a rule, the concentration giving 50% cytotoxicity) is over 100 µM.

For the molecule `COc1cccc(CN2CCC(c3[nH]ncc3Cc3ccccc3)CC2)c1Cl`, the IC50 in the data set with HIV-1 Ba-L (setting [4]) was 1 µM; with HIV-1 IIIB (setting [5]), 2 µM; in data set [1] (Table 3), 1.5 µM.

`Clc1cnccc1CN1CCC(c2[nH]ncc2Cc2ccccc2)CC1` [drawing 40]: the IC50 with HIV-1 Ba-L (setting [4]) stood at 0.2 µM; with HIV-1 IIIB (setting [5]) it was 0.1 µM; in data set [1] (Table 3), 10 µM.

With `Cc1ccc(-c2ccc3c(c2)C=C(C(=O)Nc2ccc(C[N+](C)(C)C4CCOCC4)cc2)CCC3)cc1.[Cl-]` [TAK-779, reference compound], the “inhibition of JRFL envelope / HeLa-C14 cell-cell fusion” value on CCR5 is recorded as “inhibited fusion”.

On to `c1ccc(Cc2cn[nH]c2C2CCN(Cc3ccccc3)CC2)cc1` [1-benzyl-4-(4-benzyl-1H-pyrazol-3-yl)piperidine], for which the 50% inhibitory concentration (IC50) was found to be 18.1 µM in the data set on HIV-1 Ba-L (setting [2]) and 13 µM with HIV-1 IIIB (setting [3]). The cytotoxic concentration (CC50) in “MAGI toxicity” is over 100 µM.

For the molecule `Clc1cc(CN2CCC(c3[nH]ncc3Cc3ccccc3)CC2)ccn1` [drawing 41], the IC50 came out at 0.3 µM in the data set on HIV-1 Ba-L (setting [4]), 0.2 µM in the data set with HIV-1 IIIB (setting [5]) and 10 µM in data set [1] (Table 3).

In the case of `Clc1nccc(CN2CCC(c3[nH]ncc3Cc3ccccc3)CC2)c1Cl`, the IC50 with HIV-1 Ba-L (setting [4]) worked out at 0.8 µM; with HIV-1 IIIB (setting [5]), 1.5 µM; in data set [1] (Table 3), 4 µM.

Regarding `FC(F)(F)c1ccc(CN2CCC(c3[nH]ncc3Cc3ccccc3)CC2)cc1` [4-(4-benzyl-1H-pyrazol-3-yl)-1-(4 (trifluoromethyl)benzyl)piperidine], the 50% inhibitory concentration (IC50) in the data set with HIV-1 Ba-L (setting [2]) turned out to be 9.72 µM; in the data set with HIV-1 IIIB (setting [3]), 13.2 µM. Half-maximal cytotoxicity in “MAGI toxicity” (CC50) was put at 18 µM.

For `[O-][n+]1ccc(CN2CCC(c3[nH]ncc3Cc3ccccc3)CC2)cc1`, the IC50 (in the data set on HIV-1 Ba-L (setting [4]); in the data set with HIV-1 IIIB (setting [5]); in data set [1] (Table 3)) was over 100 µM in each case.

Take `Clc1ccc(Cc2nc(CN3CCN(Cc4ccccn4)CC3)cs2)cc1` [Compound 1]: the IC50 with HIV-1 Ba-L (MAGI, value stated for both tropisms, read-out: IC50 against M tropic HIV in MAGI assay) is about 20 µM; in the data set with HIV-1 IIIB (Human immunodeficiency virus 1, IIIB, MAGI, value stated for both tropisms, read-out: IC50 against T tropic HIV in MAGI assay) it was about 20 µM.

Take `c1cc(CN2CCCNCCNCCCNCC2)ccc1CN1CCCNCCNCCCNCC1` [AMD3100]: the “inhibition of Nef-M1 induced MMD” value at CXCR4 is given as “inhibited”.

With `c1ccc(Cc2cn[nH]c2C2CCN(CC3CCCCC3)CC2)cc1` [4-(4-benzyl-1H-pyrazol-3-yl)-1-(cyclohexylmethyl)piperidine], the IC50 in the data set on HIV-1 Ba-L (setting [2]) worked out at 49.4 µM; in the data set with HIV-1 IIIB (setting [3]), 58.5 µM. The molecule further had a cytotoxic concentration (CC50) in “MAGI toxicity” of 142 µM.

As to `c1ccc(Cc2cn[nH]c2C2CCN(Cc3ccc4ccccc4c3)CC2)cc1` [drawing 50], the results for the IC50 (with HIV-1 Ba-L (setting [4]); with HIV-1 IIIB (setting [5]); in data set [1] (Table 3)) were 4 µM, 4 µM and 23 µM, respectively.

For the molecule `c1ccc(Cc2cn[nH]c2C2CCN(Cc3ccccn3)CC2)cc1` [2-((4-(4-benzyl-1H-pyrazol-3-yl)piperidin-1-yl)methyl)pyridine], the concentration for half-maximal inhibition (IC50) worked out at 16.7 µM in the data set with HIV-1 Ba-L (setting [2]) and 24.8 µM with HIV-1 IIIB (setting [3]). In addition, in “MAGI toxicity”, the CC50 was over 100 µM.

`Fc1cc(CN2CCC(c3[nH]ncc3Cc3ccccc3)CC2)ccn1`: the values for the IC50 (in the data set with HIV-1 Ba-L (setting [4]); with HIV-1 IIIB (setting [5]); in data set [1] (Table 3)) were 10 µM, over 10 µM and 10 µM, respectively.

Take `c1ccc(Cc2cn[nH]c2C2CCN(Cc3cccc4ccccc34)CC2)cc1` [drawing 86, 4-(4-benzyl-1H-pyrazol-3-yl)-1-(naphthalen-1-ylmethyl)piperidine]: the IC50 is 7.63 µM in the data set on HIV-1 Ba-L (setting [2]) and 6.79 µM in the data set on HIV-1 IIIB (setting [3]). For the same molecule, the CC50 in “MAGI toxicity” was 17.9 µM.

Take `c1ccc(Cc2cn[nH]c2C2CCN(Cc3ccnc4ccccc34)CC2)cc1`: the half-maximal inhibitory concentration (IC50) with HIV-1 Ba-L (setting [4]) worked out at 0.8 µM; with HIV-1 IIIB (setting [5]), 1 µM; in data set [1] (Table 3) it was 3 µM.

`c1ccc(Cc2cn[nH]c2C2CCN(Cc3cccc4ccccc34)CC2)cc1` [drawing 49]: the IC50 with HIV-1 Ba-L (setting [4]) amounted to 8 µM; in the data set with HIV-1 IIIB (setting [5]), 7 µM; in data set [1] (Table 3) it was 20 µM.

For the molecule `Clc1cc(CN2CCC(c3[nH]ncc3Cc3ccccc3)CC2)ccn1` [drawing 93, 4-((4-(4-benzyl-1H-pyrazol-3-yl)piperidin-1-yl)methyl)-2-chloropyridine], the IC50 in the data set with HIV-1 Ba-L (setting [2]) came out at 0.17 µM; with HIV-1 IIIB (setting [3]) it was 0.28 µM. This molecule also displayed a half-maximal cytotoxic concentration (CC50) in the data set “MAGI toxicity” of 34 µM.

For `Clc1ccc(CN2CCC(c3[nH]ncc3Cc3ccccc3)CC2)cc1` [4-(4-benzyl-1H-pyrazol-3-yl)-1-(4-chlorobenzyl)piperidine], the IC50 stood at 5.61 µM with HIV-1 Ba-L (setting [2]) and 5.33 µM in the data set on HIV-1 IIIB (setting [3]). In addition, it took 18.6 µM to reach half-maximal cytotoxicity in the data set “MAGI toxicity” (CC50).

Take `Clc1cnccc1CN1CCC(c2[nH]ncc2Cc2ccccc2)CC1` [drawing 92, 4-((4-(4-benzyl-1H-pyrazol-3-yl)piperidin-1-yl)methyl)-3-chloropyridine]: the IC50 is 0.14 µM in the data set on HIV-1 Ba-L (setting [2]) and 0.21 µM in the data set with HIV-1 IIIB (setting [3]). This molecule returned a 50% cytotoxic concentration (CC50) in “MAGI toxicity” of 67 µM.

On to `Cc1cn([C@H]2C[C@H](N=[N+]=[N-])[C@@H](CO)O2)c(=O)[nH]c1=O` [AZT], for which the “inhibition of Nef-M1 induced MMD” value on CXCR4 is “inactive”.

As to `CS(=O)(=O)c1ccc(CN2CCC(c3[nH]ncc3Cc3ccccc3)CC2)cc1` [4-(4-benzyl-1H-pyrazol-3-yl)-1-(4-(methylsulfonyl)benzyl)piperidine], the results for the IC50 with HIV-1 Ba-L (setting [2]) and in the data set on HIV-1 IIIB (setting [3]) were 2 µM and 1 µM, respectively. In addition, the 50% cytotoxic concentration (CC50) in “MAGI toxicity” is over 100 µM.

Consider `N#Cc1ccc(CN2CCC(c3[nH]ncc3Cc3ccccc3)CC2)cc1` [4-((4-(4-benzyl-1H-pyrazol-3-yl)piperidin-1-yl)methyl)benzonitrile], for which the half-maximal inhibitory concentration (IC50) with HIV-1 Ba-L (setting [2]) was 8.52 µM; in the data set on HIV-1 IIIB (setting [3]), 5.3 µM. This molecule returned a cytotoxic concentration (CC50) in the data set “MAGI toxicity” of 60 µM.

As to `c1ccc(Cc2cn[nH]c2C2CCN(Cc3ccncn3)CC2)cc1`, the 50% inhibitory concentration (IC50) in the data set with HIV-1 Ba-L (setting [4]) is 20 µM; with HIV-1 IIIB (setting [5]), over 100 µM; in data set [1] (Table 3), 146 µM.

With `Cc1n[nH]c(C2CCN(Cc3ccncc3Cl)CC2)c1Cc1ccccc1`, the inhibition at 1 µM stood at 92% in the data set on HIV-1 Ba-L (@ 1 uM, read-out: MAGI Assay % inhib CCR5) and 79% in the data set on HIV-1 IIIB (Human immunodeficiency virus 1, IIIB, MAGI, @ 1 uM, read-out: MAGI Assay % inhib CXCR4). In addition, in data set [1] (@ 100 uM, read-out: % Activity of RT), the activity at 100 µM was 4%.

Regarding maraviroc, the “inhibition of Nef-M1 induced MMD” value against CXCR4 was “inactive”.

Consider `CS(=O)(=O)c1cc(CN2CCC(c3[nH]ncc3Cc3ccccc3)CC2)ccn1`, for which the IC50 with HIV-1 Ba-L (setting [4]) turned out to be 0.6 µM; with HIV-1 IIIB (setting [5]), 0.4 µM; in data set [1] (Table 3), 4 µM.

`N#Cc1ccc(CN2CCC(c3[nH]ncc3Cc3ccccc3)CC2)nc1`: the results for the IC50 (in the data set with HIV-1 Ba-L (setting [4]); with HIV-1 IIIB (setting [5]); in data set [1] (Table 3)) were 43 µM, over 100 µM and 211 µM, respectively.

Regarding `c1ccc(Cc2cn[nH]c2C2CCN(Cc3ccc4ccccc4c3)CC2)cc1` [drawing 85, 4-(4-benzyl-1H-pyrazol-3-yl)-1-(naphthalen-2-ylmethyl)piperidine], the values for the half-inhibitory concentration (IC50) in the data set with HIV-1 Ba-L (setting [2]) and in the data set on HIV-1 IIIB (setting [3]) were 4.47 µM and 4.03 µM, respectively. Besides, the 50% cytotoxic concentration (CC50) in the data set “MAGI toxicity” came out at 16.8 µM.

Regarding `CN(C)c1ccc(CN2CCC(c3[nH]ncc3Cc3ccccc3)CC2)cc1`, the half-inhibitory concentration (IC50) in the data set on HIV-1 Ba-L (setting [4]) came to 5 µM. Besides, the “MAGI Assay IC50 CXCR4” value in the data set on HIV-1 IIIB (Table 3) is “inactive”. The “RT IC50” value in data set [1] (Table 3) is “inactive”.
